This experiment deals with COX-2 gene. In words: Real-time PCR, COX-2 gene expression. It counts as cell-based, human. As to conditions: relative to untreated control (1). As to the method: The expression level of the following six genes (Ki-67, Survivin, Interleukin-1 beta (IL-1B), Interleukin-6 (IL-6), Cyclooxygenase-2 (COX-2) and protein kinase B (AKT1)) was determined in MCF7 and HEP2 treated with the IC50 of compound 5c. The untreated cells were used as a negative control for comparison purposes. […] Ki-67 is a popular proliferation marker for human tumor cells. […] Survivin is an inhibitor of apoptotic protein (IAP) family member, which is essential for cell division. The lowering of the expression of survivin inhibited tumor development, triggered apoptosis, and made tumor cells more susceptible to radiation and chemotherapy (Albadari and Li [2023]). […] IL-1B is a pleiotropic mediator of inflammation, which is produced in response to a variety of stressors (Aarreberg et al. [2019]). […] IL-6 is a pro-inflammatory cytokine that plays a significant role in the proliferation and differentiation of human cells. It promotes the production of numerous proteins involved in acute inflammation (Uciechowski and Dempke [2020]). […]
The expression level of the following six genes (Ki-67, survivin, AKT1, IL-6, COX2, and IL-1B) was examined using real-time polymerase chain reaction (qPCR) (Mohamed et al. [2023a]). […] The cycle threshold (Ct) was determined automatically. […]

This is an account of results in PMC11582173, “Synthesis, cytotoxicity, anti-inflammatory, anti-metastatic and anti-oxidant activities of novel chalcones incorporating 2-phenoxy-N-arylacetamide and thiophene moieties: induction of apoptosis in MCF7 and HEP2 cells” (Naunyn-Schmiedeberg's Archives of Pharmacology, 2024).

The structures appear in SMILES notation.

In the case of `COc1ccc(NC(=O)COc2ccc(C=CC(=O)c3cccs3)cc2)cc1` [Compound 5c, N-(4-Methoxyphenyl)-2-(4-(3-oxo-3-(thiophen-2-yl)prop-1-en-1-yl)phenoxy)acetamide], the COX2 expression folding amounted to 0.547±0.0321 fold (HEP2 cells treated with IC50 of 5c) and 0.502±0.073 fold (MCF7 cells treated with IC50 of 5c).
